How the values were obtained:
[1] = Plasma urea nitrogen (kidney function); assay type: in vivo; conditions: mice; 24 hrs; n = 4; normal saline control 15.88 ± 1.21
Excerpt: Plasma urea nitrogen levels are an indicator of kidney function with higher levels indicating renal damage. […] There is however no statistical difference between our derivatives and the hydroxypropyl derivative.
^(1) SIGMA Urea Nitrogen Procedure No. 640A

[2] = tested on: red blood cell; experiment: Hemolysis of red blood cells (membrane disruption); assay type: cell-based
Excerpt: The mono substituted derivatives caused about the same amount of membrane disruption as the hydroxypropyl derivative.

[3] = Phase solubility: association constant with digoxin; assay type: physicochemical; conditions: 1:1 complex
[4] = Phase solubility: association constant with phenytoin; assay type: physicochemical; conditions: 1:1 complex
Excerpt: Similar results can be seen for progesterone (see Table 3 and FIGS. 5 and 6), phenytoin (see Table 4 and FIGS. 7 and 8), and testosterone (see Table 5 and FIGS. 9 and 10).

[5] = Phase solubility: association constant with testosterone; assay type: physicochemical; conditions: 1:1 complex

## OC[C@H]1O[C@@H]2O[C@H]3[C@H](O)[C@@H](O)[C@@H](O[C@H]4[C@H](O)[C@@H](O)[C@@H](O[C@H]5[C@H](O)[C@@H](O)[C@@H](O[C@H]6[C@H](O)[C@@H](O)[C@@H](O[C@H]7[C@H](O)[C@@H](O)[C@@H](O[C@H]8[C@H](O)[C@@H](O)[C@@H](O[C@H]1[C@H](O)[C@H]2O)O[C@@H]8CO)O[C@@H]7CO)O[C@@H]6CO)O[C@@H]5CO)O[C@@H]4CO)O[C@@H]3CO [β-Cyclodextrin, β-cyclodextrin]
[1]
  Plasma Urea Nitrogen, PUN + S.D.: 160.10 ± 26.16 mg/dL
[2]
  membrane disruption / percent hemolysis (in words): causing the most membrane disruption
[3]
  Digoxin association constant K1:1: 28200 M⁻¹
[4]
  Phenytoin association constant K1:1: 1510 M⁻¹
[5]
  Testosterone association constant K1:1: 17800 M⁻¹

From US5376645A (University of Kansas, priority 1992, dated 1994)
